2 compounds from US8592564B2, “Immunoassays for lamotrigine” (Seradyn, Inc., priority 2004, dated 2013) can be followed below.

This experiment has as its system anti-lamotrigine antibody. Briefly: Cross-reactivity of polyclonal antibody with lamotrigine metabolites. The following applies: 500 μg/mL spiked into human serum. In kind it is binding. The method, then:
A polyclonal antisera is obtained and an assay is performed in order to determine the amount of cross-reactivity of the polyclonal antibody with lamotrigine and lamotrigine metabolites. A known amount of lamotrigine is used to react with an anti-lamotrigine antibody prepared in accordance with the present invention. The known concentration of lamotrigine is used to calculate the amount of cross-reactivity between the antibody preparation and the metabolites as follows: N-methyl (29); N-oxide (30); and N-2 gluronide (31). The percent of cross-reactivity equals 100 times the observed concentration of lamotrigine in μg/mL, which is then divided by the concentration of added metabolites in μg/mL. No cross-reactivity is observed in specimens containing those metabolites. High concentrations of these compounds are spiked into human serum and tested as samples. The metabolites are assayed and compared to control serum (no lamotrigine). Cross reactivity is calculated using the following equation: […]
Also, the cross-reactivity of N-2 oxide at 500 μg/mL is less then 3%.

As for `C[n+]1nc(-c2cccc(Cl)c2Cl)c(N)nc1N` [N-2 methyl], the cross-reactivity entry is “do not have any cross-reactivity”. As to `Nc1nc(N)[n+]([O-])nc1-c1cccc(Cl)c1Cl` [N-2 oxide], the cross-reactivity was less than 3%.
